{"source": "paper PMC8569681", "about": "“New Pyrimidine and Pyridine Derivatives as Multitarget Cholinesterase Inhibitors: Design, Synthesis, and In Vitro and In Cellulo Evaluation” (ACS Chemical Neuroscience, 2021)", "target": "T1, Electrophorus electricus AChE (EeAChE) (Electrophorus electricus, UniProt O42275)", "T1 construct": "purchased Sigma-Aldrich (Milan, Italy)", "T1 sequence (O42275 24-633)": "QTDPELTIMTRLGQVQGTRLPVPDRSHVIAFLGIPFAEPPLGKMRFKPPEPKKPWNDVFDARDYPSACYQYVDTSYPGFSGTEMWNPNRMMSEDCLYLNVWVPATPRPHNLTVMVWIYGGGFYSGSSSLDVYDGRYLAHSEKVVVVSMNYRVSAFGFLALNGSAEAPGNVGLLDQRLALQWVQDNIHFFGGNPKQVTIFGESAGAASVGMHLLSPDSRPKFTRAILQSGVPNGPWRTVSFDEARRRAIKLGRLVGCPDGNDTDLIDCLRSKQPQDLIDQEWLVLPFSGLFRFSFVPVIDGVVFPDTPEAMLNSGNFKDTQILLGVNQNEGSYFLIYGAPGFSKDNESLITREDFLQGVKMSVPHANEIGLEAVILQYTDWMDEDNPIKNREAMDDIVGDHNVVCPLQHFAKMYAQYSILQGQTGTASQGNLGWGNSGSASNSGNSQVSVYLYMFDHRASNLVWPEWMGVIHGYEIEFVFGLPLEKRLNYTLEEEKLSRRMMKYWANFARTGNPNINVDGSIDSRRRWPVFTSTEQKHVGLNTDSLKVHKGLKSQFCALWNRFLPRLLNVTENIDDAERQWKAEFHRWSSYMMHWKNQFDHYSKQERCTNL", "test": "biochemical", "conditions": "100 μM acetylthiocholine; read-out: EeAChE, IC50 ± SE", "experimental": "The recorded data were analyzed with the enzyme kinetic module of SigmaPlot. All measurements were replicated three times, and the IC50 value obtained was confirmed by repeating the experiment twice.\nFor this purpose, eight different inhibitor solutions were prepared. […] The recorded data were analyzed by the enzyme kinetic module of SigmaPlot plotting the percentages of inhibition as a function of the different concentrations of the inhibitor, expressed in logarithmic scale, to obtain the sigmoid graph, from which it was possible to determine the IC50 value of the tested compound. The IC50 was confirmed by repeating the experiment twice.", "data": [{"molecule": "Oc1cccc(CNCCCCCCNc2ncccn2)c1O", "note": "[Compound 20, 3-(((6-(Pyrimidin-2-ylamino)hexyl)amino)methyl)benzene-1,2-diol]", "values": [{"measurement": "IC50", "value": 0.622, "unit": "µM"}]}]}
